Drawing on a melting point compilation (Tetko et al.; mined from patent text by program, amines drawn as free bases though some values may be those of a salt), this text covers melting point for 91 molecules.

Structures are written as SMILES. Residues, ends and D or L forms follow the SMILES beside them. *: point of attachment. Propionyl = CCC(=O)*; NHPh = c1ccc(N*)cc1

Consider `CNc1nc2ccccc2n1CCO`, for which the melting point (commonly the temperature, or range, at which the solid turns liquid) is over 200 °C.

Consider `O=[N+]([O-])c1ccc(-n2ccnc2)cc1Sc1cccc2cnccc12`, for which the melting point is 178 to 188 °C.

For the molecule `COc1cccc(OC)c1C(=O)N1CC2CCCN2c2ccccc21` (stereo unspecified), the melting point was in the range of 140 to 142 °C.

As for `CN(CCNC(=O)c1ccccc1)C(=O)c1ccccc1`, the melting point stood at 121 °C.

`Cc1nc(CCn2cnc3c2c(=O)[nH]c(=O)n3C)no1` had a melting point of 258 to 260 °C.

For `CC(C)C(=O)N[C@H]1C[C@@H](c2cc(NC(=O)Cc3cccc4ccccc34)n[nH]2)C1`, the melting point is 131 °C.

Molecule `CC(C)(C)N(NC(=O)c1ccccc1)C(=O)Cc1ccccc1` came in with a melting point of 167 to 169 °C.

Turning to `COC(=O)c1cccc(-n2cccc2)n1`, the melting point came to 61 °C.

As for `O=S(CCCCCl)Cc1ccc(Cl)c(Cl)c1` (stereo unspecified), the melting point was 155 to 158 °C.

Take `Cc1c(C(=O)O)oc2cc(O)c(Cl)cc12`: the melting point was in the range of 279 to 280 °C.

With `O=[N+]([O-])c1ccc(Oc2nn(Cc3ccccc3F)c3ncccc23)nc1`, the melting point fell in the range of 111 to 113 °C.

As to `CC(C)C[C@H](NC(=O)OC(c1ccccc1)c1ccccc1)C(=O)Oc1c(Cl)c(Cl)c(Cl)c(Cl)c1Cl`, the melting point lay in the range of 84 to 86 °C.

As to `O=C(NCCCCN1CCC(c2ccc3c(c2O)CCCC3)CC1)c1ccc(-c2ccc(C(F)(F)F)cc2)cc1`, the melting point was in the range of 220 to 222 °C.

`OC1(c2ccc(Cl)cc2)c2ccc(Cl)cc2-c2ncncc21` (stereo unspecified) displayed a melting point of 194 to 196 °C.

As for `C=CCN1C(=O)CSC1=NOC(=O)NC`, the melting point lay in the range of 108 to 110 °C.

For `Cc1ccc2c(-c3cccc(O)c3)nc(=O)n(C(C)C)c2c1`, the melting point fell in the range of 270 to 272 °C.

Molecule `NC(=O)c1ccc(Cn2ccc(OCc3ccc(F)cc3F)c(Br)c2=O)cc1` displayed a melting point of 235 to 238 °C.

Turning to `O=c1[nH]c(=O)n(C2CC(O)C(CF)O2)cc1C=CBr` (stereo unspecified), the melting point amounted to 208 °C.

With `Cc1cc(C)n2nc(S(=O)(=O)Nc3c(Cl)cccc3Cl)c(C#N)c2n1`, the melting point lay in the range of 280 to 285 °C.

As for `CCCn1c(-c2ccc(-n3ccnc3)cc2)cnc1[C@H](Cc1ccccn1)N(C=O)c1cc2cc(Cl)ccc2o1`, the melting point was 173 to 175 °C.

As to `CC1=CC(Cl)C(Cl)(c2cc(C)no2)C=C1C(=O)O` (stereo unspecified), the melting point was in the range of 212 to 213 °C.

The molecule `Cn1cc(-c2cc3nccnc3[nH]2)c2cc(C(=O)NC(C)(C)CO)ccc21` returned a melting point of 210 to 214 °C.

Regarding `Cc1nc2n(C)ccn2c(=O)c1CCCl`, the melting point was found to be 198 °C.

In turn, `Cc1ccc(S(=O)(=O)OCC2CCc3cc(C#N)ccc3C2)cc1` (stereo unspecified) had a melting point of 100 to 102 °C.

`O=C(COc1cc(C(=O)N2CCOCC2)ccc1[N+](=O)[O-])c1ccccc1` displayed a melting point of 172 to 173 °C.

`O=C(O)c1ccc([N+](=O)[O-])cc1C(F)(F)F` registered a melting point of 128 to 129 °C.

Consider `CC(=O)Nc1ccc2c3c(cccc13)CC2`, for which the melting point is 180 to 186 °C.

In the case of `CCCN(CCC)C(=O)n1cnc(S(=O)(=O)CC(C)C)n1`, the melting point lay in the range of 62 to 63.5 °C.

As to `O=C(NC1=NCCS1)c1cnc2c(C(F)(F)F)cccc2c1O`, the melting point lay in the range of 267 to 268 °C.

In turn, `Nc1nccnc1C(=O)NCCCn1ccnc1` gave a melting point of 118 to 120 °C.

The molecule `Cc1cc(-c2noc3cc(O)ccc23)ccc1O` came in with a melting point of 233 to 235 °C.

Molecule `O=Cc1ccc(NS(=O)(=O)c2ccccc2)cc1O` had a melting point of 150 to 157 °C.

The molecule `CN(c1ccc(F)cc1)c1nc(=O)c2cccnc2s1` showed a melting point of 184 to 185 °C.

With `CC1=C(c2c[nH]c(-c3ccc(F)cc3)c2-c2ccncc2)CCN2CCC[C@@H]12`, the melting point lay in the range of 233 to 234 °C.

Take `CC(=O)Cc1ccc2c(c1)Cc1cccnc1O2`: the melting point was 124 to 125 °C.

The molecule `CCN1c2ncc(N)cc2C(=O)N(C)c2cccnc21` showed a melting point of 189 to 191 °C.

`CC(C)N=C(NC#N)Nc1cc(C(F)(F)F)cc(C(F)(F)F)c1` yielded a melting point of 176 to 182 °C.

As to `COC(=O)c1ccccc1C(=O)Nc1cc(C(F)(F)C(F)(F)F)on1`, the melting point lay within 97 to 100 °C.

With `NC(=O)c1ccccc1C(=O)N(C[C@H]1CN(c2ccc(N3CCOCC3=O)cc2)C(=O)O1)C[C@H]1CN(c2ccc(N3CCOCC3=O)cc2)C(=O)O1`, the melting point amounted to 204 °C.

`Cn1c(CCNC(=O)OCc2ccccc2)nc(-c2ccncn2)cc1=O` yielded a melting point of 121 to 123 °C.

With `COC(=O)c1cccc2c1Oc1ccccc1N2`, the melting point lay within 113 to 114 °C.

In the case of `CC[C@@H](c1ccccc1)N(Cc1ccc(C(=O)O)cn1)S(=O)(=O)c1ccc(Cl)cc1`, the melting point is 112 to 113 °C.

Molecule `c1csc(-c2nc3cnccc3[nH]2)c1` gave a melting point of 265 to 268 °C.

The molecule `CC(n1cncn1)C(O)(Cn1cncn1)c1ccc(F)cc1F` (stereo unspecified) came in with a melting point of 115 to 116 °C.

For the molecule `FC(F)(F)c1cc(-c2ccc(Cl)c(Cl)c2)nc2c(-c3nc(Nc4ccccn4)no3)cnn12`, the melting point was 289 °C.

With `CCOCc1nc2c(N)nc(C)c(C)c2n1CCCON=C(C)C`, the melting point was in the range of 123 to 125 °C.

As to `CCCCCCCCCCCCc1ccc2nc3c(c(Cl)c2c1)CCCC3`, the melting point lay within 36 to 38 °C.

For the molecule `Cn1nc(C#N)c(Nc2ccc(F)cc2[N+](=O)[O-])n1`, the melting point fell in the range of 159 to 160 °C.

Molecule `COc1ccccc1NC(=O)Nc1nc2c(s1)CN(C)CC2` registered a melting point of 201 to 203 °C.

The molecule `CC1(C)CCc2c(-c3ccoc3)nc3sc4c(NCc5ccccn5)ncnc4c3c2C1` registered a melting point of 235 to 236 °C.

Molecule `Cc1cc2c(c3ccc(=O)[nH]c13)OC(CC(=O)[C@@H](C)N)C2` (stereo partly specified) displayed a melting point of 222 to 225 °C.

`CCCC(C)(O)C(=O)Nc1cc(Br)nc(OC)c1` (stereo unspecified) returned a melting point of 122 °C.

As for `CCOC(=O)C1=C(COCCn2c(C)nc(C)c2C)NC2=C(C(=O)OC2)C1c1ccccc1Cl` (stereo unspecified), the melting point fell in the range of 215 to 217 °C.

In the case of `CC12CCC3C(CC(O)C4CC(=O)CCC43C)C1CCC2O` (stereo unspecified), the melting point fell in the range of 195 to 205 °C.

Molecule `Cc1nc2cccc(CCN3CCC(c4noc5cc(F)ccc45)CC3)c2c(=O)[nH]1` registered a melting point of 164 to 165 °C.

Molecule `COc1ccc2c(c1)Cc1cc(=O)[nH]nc1-2` returned a melting point of 280 to 284 °C.

Turning to `Cc1nc(OC(C)C)c([N+](=O)[O-])c(N2CCN(c3ccc(F)cc3)CC2)n1`, the melting point lay within 98 to 100 °C.

Regarding `Cc1nc(N2CCN(CCCC(F)(F)F)C2=O)sc1C(=O)NCc1ccncc1`, the melting point fell in the range of 178 to 181 °C.

Take `COP(=S)(OC)SCc1cc(=O)[nH]c(C(C)C)n1`: the melting point is 89 to 93 °C.

The molecule `CC(CC=CC=CCC(=O)O)C1CCC2C3CCC4CC(O)CCC4(C)C3CC(O)C12C` (stereo unspecified) returned a melting point of 208 to 211 °C.

The molecule `N#Cc1ccc(CCCN)cc1` registered a melting point of 72 to 74 °C.

Turning to `CCC(=O)N[C@@H](C)C(=O)N[C@@H](C)C(=O)Nc1ccccc1` (Propionyl-Ala-Ala-NHPh), the melting point is 281 to 284 °C.

Take `Cc1ccc(N)cc1Nc1nccc(-c2ccc(Cl)nc2)n1`: the melting point was in the range of 117 to 118 °C.

As for `CC(=O)N1CCN(CC#CCn2cncc2C)C1=O`, the melting point lay within 93 to 95 °C.

Take `CCOC(=O)c1c(C(F)(F)F)nc(C(F)(F)Cl)c(C(=O)OC)c1NC(C)(C)C`: the melting point was in the range of 51.5 to 53 °C.

Consider `C=CCc1c(OC)cc(Cc2cnc(N)nc2N)cc1OC`, for which the melting point was in the range of 185 to 187 °C.

Molecule `O=C(CCC1CCN(C(=O)OCc2ccc([N+](=O)[O-])cc2)CC1)c1ccc2c(c1)CN1C(=O)c3ccccc3C1CC2` (stereo unspecified) returned a melting point of 179 to 181 °C.

Regarding `COc1cc(OC)c2c(=O)cc(S)oc2c1C1CCN(C)CC1O` (stereo unspecified), the melting point was 184 to 185 °C.

On to `O=C(Nc1cccnc1)N1CCN(c2nccc(-c3cc(F)ccc3F)n2)CC1`, for which the melting point fell in the range of 270 to 271 °C.

Turning to `O=CC(=Cc1ccccc1Cl)C(C=O)=Cc1ccccc1Cl`, the melting point fell in the range of 177 to 178 °C.

Molecule `CC(=O)c1ccc(OCCCCN2C(=O)c3ccccc3C2=O)cc1` came in with a melting point of 112 to 114 °C.

With `COc1cc(C[NH+]([O-])C(=O)C(F)(F)F)ccn1` (stereo unspecified), the melting point fell in the range of 176 to 178 °C.

`O=CNN(C1=NCCS1)c1ccccc1` came in with a melting point of 140 to 141 °C.

Molecule `CCOc1ccccc1OCC1(O)CCNC1` (stereo unspecified) displayed a melting point of 108 to 110 °C.

In turn, `N#Cc1ccc(Oc2ccccc2)cc1C#N` returned a melting point of 98 to 100 °C.

`CC(C)c1ccc(C(=O)C2=C(O)C(=O)N(c3ccc(Sc4ccc([N+](=O)[O-])cc4)nn3)C2c2ccc(OC(F)(F)F)cc2)cc1` (stereo unspecified) showed a melting point of 194 to 209 °C.

As to `CCOC(=O)c1sc(-n2ccc(OCc3ccc(F)cc3)cc2=O)nc1C`, the melting point was in the range of 214 to 217 °C.

The molecule `CCOC(OCC)c1cc(Nc2ccc(OC)cc2)c(F)c(-c2ccc(Cl)cc2)n1` had a melting point of 110 to 111 °C.

`Cn1c(SC(Cl)=C(Cl)C#N)nnc1C(F)(F)F` displayed a melting point of 90 to 94 °C.

`COc1ccc(C2=NNC(=O)[C@H]3CC=CC[C@@H]23)cc1OC1CCCC1` (relative stereo) showed a melting point of 166 to 168 °C.

`Cc1c(C)c2c(c(C)c1O)C(=O)C(C)(C)O2` displayed a melting point of 142 to 144 °C.

On to `Cc1cc(C(=O)N(C)C)c(O)c([N+](=O)[O-])c1`, for which the melting point fell in the range of 160 to 162 °C.

`O=C(Nn1c(=O)c(=O)[nH]c2cc(C(F)(F)F)c([N+](=O)[O-])cc21)C(F)(F)F` showed a melting point of over 250 °C.

As for `CCOC(=O)/C(=N\OC1CCCCCC1)c1csc(N)n1`, the melting point was 107 to 108 °C.

For `CC(C(=O)O)c1ccc2c(c1)C(=O)Cc1ccccc1O2` (stereo unspecified), the melting point fell in the range of 152 to 154 °C.

`COc1ccc(-c2sc3ccccc3c2C(=O)c2ccc(OCCN3CCCCC3)cc2)cc1` registered a melting point of 41 to 44 °C.

In turn, `COc1ccccc1NC(=O)Nc1nc(NCCc2ccc(O)cc2)nc(Oc2ccc3ccccc3c2)n1` yielded a melting point of 238 °C.

`O=C(Nc1cccc(C(=O)O)c1)Oc1ccccc1` returned a melting point of 131 to 133 °C.

For the molecule `C=CCNc1nc(C)ccc1C(=O)OC`, the melting point was 140 to 142 °C.

Molecule `CNC1c2ccccc2CC1N1CCCCC1` (stereo unspecified) had a melting point of over 260 °C.

`COP(=O)(CN[C@@H](Cc1ccc(-c2ccccc2)cc1)C(=O)NCCC(=O)O)OC` came in with a melting point of 122 to 123 °C.
